From ChEMBL document CHEMBL5108051, “Improving the Antimicrobial Performance of Amphiphilic Cationic Antimicrobial Peptides Using Glutamic Acid Full-Scan and Positive Charge Compensation Strategies” (J Med Chem, 2022) come the findings set out here.

SMILES strings stand for the structures. Calls of active or inactive are those of the source. No cut-off for these calls is given here. Bridge positions count the residues as written; N and C are the ends. Square brackets hold non-standard residues; d marks the D form. Peptide text beside a SMILES is read from it. * marks the point of attachment. X1 = CC[C@H](C)CCCCC(=O)*; Dab = NCC[C@H](N)C(=O)O

Series [1] has as its system Staphylococcus aureus. The experiment in a line: Antimicrobial activity against Staphylococcus aureus ATCC 25923 in presence of FeCl3. Format: functional, organism-based.
The nature of series [2]: Acute toxicity in BALB/c mouse assessed as mortality at 40 mg/kg, ip measured within 10 mins. Format: organism-based. Particulars: in vivo.
A short description of series [3]: Acute toxicity in BALB/c mouse assessed as pathological changes in heart at 10 to 40 mg/kg, ip administered as single dose measured for 7 days by H and E staining method. The following applies: in vivo, 168 h, dose 10-40 mg/kg, time 7 day. Format: organism-based.
Series [4] relates to Escherichia coli. Briefly: Antimicrobial activity against Escherichia coli ATCC 25922 assessed as reduction in survival rate in presence of 0.02 to 2000 microg/ml of chymotrypsin measured after 6 hrs. In kind it is functional, organism-based.

On to `CC(C)C[C@H](NC(=O)[C@H](CC(C)C)NC(=O)[C@H](CCC(=O)O)NC(=O)[C@H](CCCCN)NC(=O)[C@H](CC(C)C)NC(=O)[C@H](CC(C)C)NC(=O)[C@H](CCCCN)NC(=O)[C@H](C)NC(=O)[C@@H](NC(=O)[C@H](CCCCN)NC(=O)[C@@H]1CCCN1C(=O)[C@H](CC(C)C)NC(=O)[C@@H](N)Cc1ccccc1)C(C)C)C(N)=O` (H-FLPKVAKLLKELL-NH2), for which, in series [1], the outcome was Active.

For the compound `CC[C@H](C)CCCCC(=O)N[C@@H](CCN)C(=O)N[C@H](C(=O)N[C@@H](CCN)C(=O)N[C@H]1CCNC(=O)[C@H]([C@@H](C)O)NC(=O)[C@H](CCN)NC(=O)[C@H](CCN)NC(=O)[C@H](CC(C)C)NC(=O)[C@@H](Cc2ccccc2)NC(=O)[C@H](CCN)NC1=O)[C@@H](C)O` (X1-[Dab]T[Dab][Dab][Dab][dF]L[Dab][Dab]T; lactam 4-C), the values for the Activity entry in series [2] and in series [3] were “Toxic” and “Non-Toxic”, respectively. Moreover, the outcome in series [4] was Active.
